The values below come from PubChem BioAssay AID493128 (Sanford-Burnham Center for Chemical Genomics, 2011).

Usually EC50 stands for the concentration at which the effect is half-maximal.

SMILES strings stand for the structures. Activity calls are given as the source filed them. No rule for the calls is given here.

The assay deals with intestinal alkaline phosphatase Alpi (Mus musculus). The assay is described as follows: activation of murine Alpi phosphatase – biochemical, human IAP activator project, SAR follow-up (AID 493128). The conditions noted are these: purified mouse IAP enzyme activity.

As for `Cc1cc(C(=O)NN=Cc2cc(Cl)cc([N+](=O)[O-])c2O)n[nH]1`, the EC50 was > 100 µM (inactive).
For the molecule `CC(=O)Nc1cccc(C(=O)NNC(=O)c2n[nH]c(=O)c3ccccc23)c1`, the EC50 is > 100 µM (inactive).
On the same count and under the same terms, under `O=C(NN=Cc1ccc(O)cc1O)C(=O)NN=Cc1ccc(O)cc1O` stands > 100 µM (inactive).
Still for that read-out and setting: under `COc1cc(/C=N/NC(=O)C(=O)N/N=C/c2cc(OC)c(OC)c(OC)c2)cc(OC)c1OC` stands > 100 µM (inactive).
As for `COc1ccc(OC)c(/C=N/NC(=O)C(=O)N/N=C/c2cc(OC)ccc2OC)c1`, the EC50 was > 100 µM (inactive).
The same measure, in the same setting: under `CCOc1cc(/C=N/NC(=O)C(=O)N/N=C/c2ccc(O)c(OCC)c2)ccc1O` stands > 100 µM (inactive).
The same measure, in the same setting: under `O=C(NN=Cc1ccccc1)C(=O)NN=Cc1ccccc1` stands > 100 µM (inactive).
Still for that read-out and setting: next, `COc1cccc(C=NNC(=O)c2cc(-c3cccn3C)n[nH]2)c1O`: > 100 µM (inactive); `O=C(N/N=C\c1cccc(O)c1)C(=O)N/N=C/c1cccc(O)c1`: > 100 µM (inactive); `COc1cc(/C=N/NC(=O)C(=O)N/N=C/c2ccc(O)c(OC)c2)ccc1O`: > 100 µM (inactive).
For the molecule `CN(C)c1ccc(/C=N/NC(=O)C(=O)N/N=C/c2ccc(N(C)C)cc2)cc1`, the EC50 is > 100 µM (inactive).
In the case of `CCN(CC)c1ccc(/C=N/NC(=O)C(=O)N/N=C/c2ccc(N(CC)CC)cc2O)c(O)c1`, the EC50 is > 100 µM (inactive).
Still for that read-out and setting: under `O=C(CCN1C(=O)/C(=C/c2ccccc2Cl)SC1=S)NNC(=O)c1ccccc1O` stands > 100 µM (inactive); under `Cc1ccc(-c2cc(C(=O)NN=Cc3ccccc3O)n[nH]2)o1`, > 100 µM (inactive); under `O=C(N/N=C/c1c(O)ccc2ccccc12)c1cc(-c2cccs2)[nH]n1`, > 100 µM (inactive).
Same read-out and setting: under `CC(=NNC(=O)C(=O)NN=C(C)c1cccc(O)c1)c1cccc(O)c1` stands > 100 µM (inactive); under `COC(=O)c1ccc(/C=N/NC(=O)C(=O)N/N=C/c2ccc(C(=O)OC)cc2)cc1`, > 100 µM (inactive); under `CCOc1cccc(C=NNC(=O)c2cc(C3CC3)[nH]n2)c1O`, > 100 µM (inactive).
On to `O=C(N/N=C/c1cc(Br)ccc1O)C(=O)N/N=C/c1cc(Br)ccc1O`, for which the EC50 was > 100 µM (inactive).
As for `O=C(NC(=S)NNC(=O)c1ccccc1O)c1ccc(F)cc1`, the EC50 is > 100 µM (inactive).
Consider `O=C1Nc2ccc(Br)cc2C12NNc1ccccc1O2` (stereo unspecified), for which the IC50 (inhibition of IAP activity) was 0.382 µM.
In the case of `Cc1cc(C(=O)N/N=C\c2cc(C(C)(C)C)ccc2O)n[nH]1`, the EC50 is > 100 µM (inactive).
`COc1ccc(/C=N/NC(=O)C(=O)N/N=C/c2ccc(OC)c(OC)c2)cc1OC`: the EC50 is > 100 µM (inactive).
The same measure, in the same setting: under `COc1cc(OC)c(OC)cc1/C=N/NC(=O)C(=O)N/N=C/c1cc(OC)c(OC)cc1OC` stands > 100 µM (inactive).
On to `CC1C(=O)NN=C1C(=O)NN=Cc1ccc(O)cc1O` (stereo unspecified), for which the EC50 is > 100 µM (inactive).
Consider `CCCCOc1ccc(/C=N/NC(=O)C(=O)N/N=C/c2ccc(OCCCC)cc2)cc1`, for which the EC50 was > 100 µM (inactive).
Still for that read-out and setting: under `O=C(NNC(=S)NC(=O)c1ccccc1[N+](=O)[O-])c1ccccc1O` stands > 100 µM (inactive); under `CC(C)Oc1ccccc1/C=N/NC(=O)C(=O)N/N=C/c1ccccc1OC(C)C`, > 100 µM (inactive).
Still for that read-out and setting: next, `O=C(N/N=C/c1ccc2c(c1)OCO2)C(=O)N/N=C/c1ccc2c(c1)OCO2`: > 100 µM (inactive); `O=C(N/N=C\c1ccc2c(c1)OCO2)C(=O)N/N=C/c1ccc2c(c1)OCO2`: > 100 µM (inactive); `O=C(N/N=C/c1ccccc1O)c1cc(C2CC2)[nH]n1`: > 100 µM (inactive).
For the molecule `Cc1cc(C(=O)N/N=C/c2cc(Br)ccc2O)n[nH]1`, the EC50 is > 100 µM (inactive).
`OC(c1nc2ccc(F)cc2[nH]1)C(O)c1nc2ccc(F)cc2[nH]1` (stereo unspecified): the EC50 is > 100 µM (inactive).
Still for that read-out and setting: under `CC(C)C(=O)NC(=S)Nc1ccccc1C(=O)Nc1ccccc1` stands > 100 µM (inactive).
Still for that read-out and setting: under `Cn1cccc1-c1cc(C(=O)NN=Cc2cc(Br)ccc2O)[nH]n1` stands > 100 µM (inactive); under `COc1cccc(C=NNC(=O)c2[nH]nc3c2CCc2ccccc2-3)c1O`, > 100 µM (inactive); under `COc1cccc(C=NNC(=O)C(=O)NN=Cc2cccc(OC)c2OC)c1OC`, > 100 µM (inactive).
Take `COc1cc(OC)cc(C(=O)NNC(=O)c2nn(C)c(=O)c3ccccc23)c1`: the EC50 was > 100 µM (inactive).
Consider `O=C(N/N=C/c1ccccc1O)c1n[nH]c2c1CCC2`, for which the EC50 was > 100 µM (inactive).
For the molecule `COc1ccc(-c2csc(Nc3cccc4ccccc34)n2)cc1F`, the EC50 was > 100 µM (inactive).
Same read-out and setting: under `O=C(NN=Cc1c(O)ccc2ccccc12)c1[nH]ncc1Br` stands > 100 µM (inactive); under `CC(=O)Nc1ccc(/C=N/NC(=O)C(=O)N/N=C/c2ccc(NC(C)=O)cc2)cc1`, > 100 µM (inactive); under `O=C(N/N=C/c1cc(Br)ccc1O)c1cc(C2CC2)[nH]n1`, > 100 µM (inactive).
As to `O=C(N/N=C/c1ccc(O)cc1)C(=O)N/N=C/c1ccc(O)cc1`, the EC50 is > 100 µM (inactive).
With `O=C(N/N=C/c1c(O)ccc2ccccc12)C(=O)N/N=C/c1c(O)ccc2ccccc12`, the EC50 was > 100 µM (inactive).
For the molecule `C/C(=N\NC(=O)c1[nH]nc2c1CCc1ccccc1-2)c1ccccc1O`, the EC50 is > 100 µM (inactive).
Regarding `COc1cccc(C=NNC(=O)C(=O)NN=Cc2cccc(OC)c2O)c1O`, the EC50 is > 100 µM (inactive).
The same measure, in the same setting: next, `COc1ccc(-c2cc(C(=O)NN=Cc3c(O)ccc4ccccc34)[nH]n2)cc1`: > 100 µM (inactive).
Same read-out and setting: under `COc1cccc(C=NNC(=O)C2=NNC(=O)C2C)c1O` (stereo unspecified) stands > 100 µM (inactive); under `CCOc1cccc(C=NNC(=O)c2cc(-c3cccn3C)n[nH]2)c1O`, > 100 µM (inactive); under `COc1cc(/C=N\NC(=O)C(=O)N/N=C/c2cc(OC)c(O)c(OC)c2)cc(OC)c1O`, > 100 µM (inactive).
On the same count and under the same terms, under `Cc1ccc(O)c(C=NNC(=O)c2[nH]ncc2Br)c1` stands > 100 µM (inactive); under `Cc1cc(C(=O)NN=Cc2cccc([N+](=O)[O-])c2O)n[nH]1`, > 100 µM (inactive); under `N#CCOc1ccccc1/C=N/NC(=O)C(=O)N/N=C/c1ccccc1OCC#N`, > 100 µM (inactive).
As to `C/C(=N\NC(=O)c1cc(C)[nH]n1)c1ccc2ccccc2c1O`, the EC50 was > 100 µM (inactive).
Same read-out and setting: under `O=C(N/N=C/c1ccccc1C(=O)O)C(=O)N/N=C/c1ccccc1C(=O)O` stands > 100 µM (inactive).
